From patent US4459227A, “Para-hydroxyphenylhydrazines as in situ precursors of iminoquinones and quinones” (Duke University, priority 1981, dated 1984)
“Also recorded” adds a separate entry of the source. Where two headings read alike, the source gives them in different places.

Columns and labels:
[1] = Spectral study of rearrangement/reactions with nucleophiles, reducing and oxidizing agents; assay type: physicochemical; conditions: for Final Maximum (nm): pH 8-9, ten-fold excess
Method: In order to characterize the products of hydrolysis of AA-CHP's, the hydrolysis of Leu-CHP by LAP was studied by absorption spectrophotometry. […] This was also true for the new maximum at 350 nm and for a second new "maximum" which appeared as a low, broad "peak" merging with 350 peak and centered at about 400 nm. However, by 22 minutes (not shown) the absorbance at 300 and 400 nm had diminished in intensity while the 350 maximum continued to increase, albeit at a slower rate. At pH 7.0 (FIG. 8B), the absorbance at 300 nm continued to slowly increase in intensity even up to 90 minutes after dissolving CHP-OEt (0.2 mg) in DMSO (0.02 ml) into 0.05M Phosphate buffer (3 ml). Furthermore, a second maximum at 350 nm developed but it remaind smaller in intensity than the 300 nm peak.
Table 2 summarizes the results of several separate experiments involving the reactions of CHP-OEt, CHA-OEt, pIQ-OEt and pBQ (0.5-1.0 mM) with various nucleophiles (lysine, 3-MPA) reducing agents (NaBH4, 3-MPA) and oxidizing agents (NaIO4, O2) in ten-fold molar excess in Tris-HCl buffer (0.05M, pH 9.0).
In these studies, CHP-OEt, CHA-OEt and pBQ* were all pure compounds, thus, their absorption could be unequivocably assigned, pIQ-OEt was generated by the autoxidation of CHA-OEt in solution and its presence was noted by the appearance of one absorbance maximum at 400 nm and the development of a distinct yellow color to a previously clear solution of CHA-OEt. […] On the other hand, there was a dissimilarity between the spectra of CHP-OEt and CHA-OEt. CHA-OEt was oxidized by O2 or NaIO4 to the pIQ-OEt with a λmax =400 nm whereas NaIO4 had no effect on the rate or nature of spectral change that occurred when . . .

Salmonella typhosa = conditions: 1911; cited from earlier work
fungi = conditions: cited from earlier work
[2] = biological target: T1, Leucine Aminopeptidase (LAP), type III-CP (Sus scrofa, UniProt P28839); test: Leucine aminopeptidase in vitro hydrolysis (TLC); assay type: biochemical; conditions: 1 mg/ml AA-CHP, pH 9.0, up to 12 hours
T1 sequence (P28839 33-519): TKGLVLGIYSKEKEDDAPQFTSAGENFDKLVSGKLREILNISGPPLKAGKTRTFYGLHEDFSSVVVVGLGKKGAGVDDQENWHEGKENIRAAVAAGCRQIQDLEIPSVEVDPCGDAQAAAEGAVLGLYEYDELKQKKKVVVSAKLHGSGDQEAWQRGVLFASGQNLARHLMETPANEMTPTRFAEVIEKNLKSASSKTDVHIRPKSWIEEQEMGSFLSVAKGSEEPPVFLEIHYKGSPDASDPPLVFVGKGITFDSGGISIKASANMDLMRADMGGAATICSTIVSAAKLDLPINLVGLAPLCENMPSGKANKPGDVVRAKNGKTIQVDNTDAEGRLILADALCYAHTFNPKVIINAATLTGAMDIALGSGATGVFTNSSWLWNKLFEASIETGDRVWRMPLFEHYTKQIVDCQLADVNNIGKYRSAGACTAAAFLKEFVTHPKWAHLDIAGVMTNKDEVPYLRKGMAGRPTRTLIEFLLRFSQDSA
Method: Leucine Aminopeptidase (LAP), type III-CP (Sigma) was stored at 0°-4° C. in 0.75M saturated […], 0.1M Tris and 0.005M MgCl2 (pH 8) and contained 210 U/ml. Prior to the hydrolysis experiment, LAP (50λ) was activated by incubating it in 0.025M MnCl2 (0.2 ml), 0.5M Tris.HCl buffer (pH 9.0, 0.2 ml) and demineralized and ultra-filtered H2 O (0.6 ml) for at least 2 hours at 37° C. To each sample test tube was added AA-CHP (1.5 mg) in 0.02M Tris HCl buffer (pH 9.0, 0.5 ml) so that the final concentration was 1 mg/ml AA-CHP. […] They were dried and sprayed with 0.2% Ninhydrin in EtOH and the color was developed at 85° C. for 5 minutes. The in vitro hydrolysis of Leu-CHP by LAP was also concomitantly studied by scanning spectrophotometry at different times after the start of incubation with the enzyme. A blank reference cell containing only enzyme and buffer was used.

[3] = tested on: Leucine Aminopeptidase (LAP); test: Hydrolysis of Leu-CHP by LAP studied by absorption spectrophotometry; assay type: biochemical; conditions: pH 8.5, FIG. 7
Method: Leucine Aminopeptidase (LAP), type III-CP (Sigma) was stored at 0°-4° C. in 0.75M saturated […], 0.1M Tris and 0.005M MgCl2 (pH 8) and contained 210 U/ml. Prior to the hydrolysis experiment, LAP (50λ) was activated by incubating it in 0.025M MnCl2 (0.2 ml), 0.5M Tris.HCl buffer (pH 9.0, 0.2 ml) and demineralized and ultra-filtered H2 O (0.6 ml) for at least 2 hours at 37° C. To each sample test tube was added AA-CHP (1.5 mg) in 0.02M Tris HCl buffer (pH 9.0, 0.5 ml) so that the final concentration was 1 mg/ml AA-CHP. The hydrolysis reaction was allowed to proceed for up to 12 hours and then TLC's were performed by spotting the reaction solution (2-3 μl) on cellulose plates and developing them in Butanol (20 ml)/HAc(4ml)/Pyridine(13.3 ml)/H2 O (16 ml) solvent system. […]
In order to characterize the products of hydrolysis of AA-CHP's, the hydrolysis of Leu-CHP by LAP was studied by absorption spectrophotometry. […] However, by 22 minutes (not shown) the absorbance at 300 and 400 nm had diminished in intensity while the 350 maximum continued to increase, albeit at a slower rate. At pH 7.0 (FIG. 8B), the absorbance at 300 nm continued to slowly increase in intensity even up to 90 minutes after dissolving CHP-OEt (0.2 mg) in DMSO (0.02 ml) into 0.05M Phosphate buffer (3 ml). […]

[4] = tested on: L1210 murine leukemia cells; test: Inhibition of 3H-thymidine incorporation into DNA; assay type: cell-based
Source text: An L1210 murine leukemia cell line was maintained in mice (female DBA/2J strain from the Jackson Laboratory, Bar Harbor, Maine) by transferring every seven days via intraperitoneal (i.p.) injection of 10^5 cells. […] The frozen cells maintained their viability for over two years. For all in vitro and in vivo experiments only freshly harvested intraperitoneally grown L1210 cells were used.
A DBA/2J mouse bearing L1210 cells for 6 days after i.p. inoculation of 1×10^5 cells was sacrificed by cervical dislocation and, using sterile technique, the abdominal skin was incised and pinned back. Using two 10 ml syringes with 21 gauge needles, one being filled with cold phosphate buffer saline (PBS) (9 ml, pH 7.4) and in 3 ml increments, the solution was injected into the peritoneal cavity through one side and withdrawn with the other syringe through the other side. The light pink cell suspension was then centrifuged at 2000 rpm for 5 minutes and the supernatant was decanted. […] After 0, 2, 4, 5 or 6 hours preincubation, 3H-Thymidine (1 μl; 1 μC) was added and then the incubation was continued for another 1/2 hour. The cells were then killed and their proteins precipitated with 5% TCA. […] To each vial was then added more PPO/POPOP/Toluene cocktail (1.5 ml) and the samples were counted. […]

[5] = In vivo toxicity (LD50, survival, histology); parameters: species or system mice; conditions: mouse, in vivo, ip, mice
Method: (§1) Female DBA/2J mice, 8 weeks old, were injected intraperitoneally with test compound solutions (X, XI, XII, XIII, […]) to give a final concentration of 30 mg/ml.
(§2) In those groups receiving both test compound and cysteine, cysteine (1000 mg/kg) was given i.p. both 1 hour prior to and 2 or 3 hours after i.p. injection of the test compound. In Table 3 are the results of these experiments.

Female DBA/2J mice = test: In vivo toxicity (LD50, survival, histology)
Method: as §1, §2

mice = tested on: mice
Method: Cysteine hydrochloride was neutralized with 1N NaOH and diluted with PBS so that the final concentration was 30 mg/ml. In those groups that received only the test compounds, a single dose (up to 1000 mg/kg) was given i.p. and any toxic deaths were autopsied and hematoxylin and eosin sections obtained.

blue-green algae = conditions: cited from earlier work
phage (viral) infections = conditions: tissue cultures, p-benzoquinone generated in situ; cited from earlier work
liver = conditions: cited from earlier work
[6] = Leu-CHP 1000 mg/kg i.p. with cysteine

Structure (SMILES): O=C1C=CC(=O)C=C1 [pBQ, p-Benzoquinone, reference compound]
- Final Maximum (nm) ([1]; compound added: 3-MPA): 300 nm
- Final Maximum (nm) ([1]; compound added: Lysine): 350 nm
- Initial Maximum (nm) ([1]; pH 8-9): 240 nm
- peak appearing only after several hours with 3-MPA ([1]; ten-fold excess 3-MPA, pH 9.0): 350 nm
- initial peak with lysine (rapidly diminished) ([1]; ten-fold excess lysine, pH 9.0): 300 nm
- bactericidal activity (Salmonella typhosa): potent bactericidal substance

Structure (SMILES): O=C1C(Cl)=C(Cl)C(=O)C(Cl)=C1Cl [chloranil, 2,3,5,6-tetrachloro-1,4-benzoquinone]
- antifungal properties (fungi): marked antifungal properties

Structure (SMILES): CC(C)C[C@H](N)C(=O)NN(CC(=O)O)c1ccc(O)cc1 [Leu-CHP, βN-(L-leucyl)-αN-(carboxymethyl)-p-hydroxy-phenylhydrazine]
- cleavage/hydrolysis by LAP [2]: able to cleave; also recorded: demonstrated
- new, more intense absorption maximum appearing during hydrolysis [3]: 350 nm
- original absorption maximum (disappeared during hydrolysis) [3]: 300 nm
- inhibition of 3H-thymidine incorporation into DNA ([4]; no pre-incubation (simultaneous exposure), FIG. 12): no inhibition
- inhibition of 3H-thymidine incorporation / DNA synthesis (in words) ([4]; with pre-incubation): degree of inhibition of ^3 H-thymidine incorporation also increased
- LD50 [5]: 750 to 1000 mg/kg
- survivors/total (Female DBA/2J mice; 600 mg/kg i.p.): 5/5
- survivors/total (Female DBA/2J mice; 750 mg/kg i.p.): 3/3
- survivors/total (Female DBA/2J mice; 1000 mg/kg i.p.): 0/9
- acute renal tubular necrosis (in words) (Female DBA/2J mice; i.p., mice): early signs of ATN
- microscopic examination of the heart (Female DBA/2J mice; i.p., mice): no evidence of a toxic insult
- pulmonary congestion and edema (in words) (Female DBA/2J mice; i.p., Phe-CHP 600, Leu-CHP 1000, CHP-OEt 550 mg/kg): moderate to severe
- deaths/total (mice; 1000 mg/kg i.p., no cysteine): Nine of nine
- deaths/total (mice; 1000 mg/kg i.p., no cysteine, listed as Leu--CHP): 9/9
- Time of Death (mice; [6]): 72 h
- pulmonary congestion or edema, histology of mouse that died on Day 3 (mice; [6]): no evidence of pulmonary congestion or edema
- deaths/total (mice; Leu-CHP 1000 mg/kg i.p. with cysteine 1000 mg/kg before and after): one of three
- deaths/total (mice; Leu-CHP 1000 mg/kg i.p. with cysteine 1000 mg/kg before and after, listed as Leu--CHP): 1/3
- LD100 (mice; i.p., mice): 1000 mg/kg
- Time of Death (mice; no cysteine, Leu-CHP 1000 mg/kg, Phe-CHP 600 mg/kg i.p.): ≤ 8 h
- Time of Death (mice; no cysteine, Leu-CHP 1000 mg/kg, Phe-CHP 600 mg/kg i.p., listed as Leu--CHP): < 8 h

Structure (SMILES): O=C1C(Cl)=C(Cl)C(=O)c2ccccc21 [2,3-dichloro-1,4-naphthoquinone]
- inhibition of blue-green algae (blue-green algae): inhibited

Structure (SMILES): Oc1ccc(O)cc1 [p-benzohydroquinone]
- prevention of phage (viral) infections (phage (viral) infections): prevent phage (viral) infections from proliferating

Structure (SMILES): CC(=O)N=C1C=CC(=O)C=C1 [N-acetyl-p-iminobenzoquinone]
- toxic effects in the liver (liver): responsible for the toxic effects in the liver
